From patent US12240854B2, “TRAF 6 inhibitors” (Helmholtz Zentrum München - Deutsches Forschungszentrum für …, priority 2018, dated 2025) come the findings set out here.

“Also recorded” adds a separate entry of the source.

The target of the first test is T1, TRAF6WTStrepII-Ubc13FH interaction (Homo sapiens, UniProt Q9Y4K3).
T1 construct: RING-Zincfinger1 (RZ1) domain (residues 50-159) of human TRAF6 wildtype; made in house; host or cells: E. coli BL21 codon plus RIPL
T1 sequence (Q9Y4K3 with tags, fused parts or gaps): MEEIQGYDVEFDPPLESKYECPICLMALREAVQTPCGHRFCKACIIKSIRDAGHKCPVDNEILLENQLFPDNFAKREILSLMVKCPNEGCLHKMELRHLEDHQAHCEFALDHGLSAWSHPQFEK
Put plainly: ALPHAScreen TRAF6-Ubc13 interaction assay. Type of test: binding.
Details: not given
The source says: In order to identify small molecules that specifically target the RZ1 domain of TRAF6 and thereby prevent its binding to Ubc13, the ALPHAScreen technology (PerkinElmer) was chosen to detect TRAF6WTStrepII-Ubc13FH interaction in High-Throughput-Screenings as well as Structure Activity Relationship (SAR) analysis.
For performance of an automated ALPHAScreen assay, all following components were pre-diluted in ALPHAScreen buffer (1×PBS, 0.5% BSA, 0.01% Tween-20). First, the TRAF6 protein (end concentration 100 nM, 30 μL volume) was added to 384-well-opti-plates involving the MultiFlo dispensing system (BioTek) followed by transfer of the compounds via the Sciclone G3 transfer station (PerkinElmer). After addition of Ubc13FH (end concentration 75 nM, 10 μL volume) with the MultiFlo system and incubation for one hour at room temperature, both beads (Strep-Tactin Alpha Donor beads and Nickel-Chelate acceptor beads; end concentrations 4 μg each, 10 μL volume each) were mixed and added using the MultiFlo system in subdued light. Read-out of the plates occurred after another hour of incubation at room temperature. Statistical parameters including the coefficient of variation, Z′ factor and signal window were calculated to determine the quality of the HTS campaign. To evaluate the efficacy of the compounds, ALPHAScreen units of compound-treated samples were referred to DMSO control treated samples. Thereby, the TRAF6D57K mutant served as the control for minimum signal and was included on every plate of the screening. Compounds that inhibited TRAF6WTStrepII-Ubc13FH by more than 25% were considered as actives. After elimination of ALPHAScreen frequent hitter compounds and His-tag frequent hitters (Schorpp, K., I. Rothenaigner, E. Salmina, et al., Identification of Small-Molecule Frequent Hitters from AlphaScreen High-Throughput Screens. J Biomol Screen, 2014. 19(5): p. 715-26), 178 compounds were defined as primary hits and were subsequently tested in five-point serial dilution assays (2.5-40 μM) in TRAF6WTStrepII-Ubc13FH ALPHAScreen experiments. Only compounds with dose-dependent effects on TRAF6WTStrepII-Ubc13FH (n=27) were taken for further research. For analog testing, all compounds were analyzed in ten-point titration (0.2-100 μM) in TRAF6WTStrepII-Ubc13FH ALPHAScreen experiments. In parallel, the compounds were tested in the ALPHAScreen TruHits Kit (PerkinElmer) to rule out unspecific interference with the ALPHAScreen technology.
Take `Cc1nn(-c2ccc3nnc(C)n3n2)c(C)c1CCC(=O)N1CCN(c2ccccc2)CC1` [Example C25, 3-(3,5-dimethyl-1-(3-methyl-[1,2,4]triazolo[4,3-b]pyridazin-6-yl)-1H-pyrazol-4-yl)-1-(4-phenylpiperazin-1-yl)propan-1-one]: the “inhibition of TRAF6-Ubc13 interaction in ALPHAScreen (in words)” value was “promising hit; also recorded: best results in in-vitro and cell-based assays”.

Still in this test, the particulars now being: TRAF6 100 nM, Ubc13FH 75 nM; class symbols; read-out: IC50 Alphascreen (inhibition of TRAF6-UBC13 interaction).
Broadly, the IC50 is the concentration that inhibits the measured activity by half. With `Cc1nn(-c2ccc3nnc(C(F)(F)F)n3n2)c(C)c1CCC(=O)N1CCN(Cc2cccc(-c3nnn[nH]3)c2C)CC1` [Example 180], the IC50 was at most 10 µM.

With `Cc1nn(-c2ccc3nnc(C)n3n2)c(C)c1CCC(=O)N1CCN(Cc2ccc3cccnc3c2)CC1` [Example 150], the concentration for half-maximal inhibition (IC50) was at most 10 µM.

As for `Cc1nn(-c2ccc3nnc(C)n3n2)c(C)c1CCC(=O)N1CCN(Cc2cccc(S(C)(=O)=O)c2)CC1` [Example 155], the IC50 was at most 3 µM.

As a reminder, the inhibition is how much of the control response was suppressed. In the case of `Cc1nn(-c2ccc3nnc(C)n3n2)c(C)c1CCC(=O)N1CCCC(Cc2ccccc2)C1` (stereo not shown) [Example 103], the inhibition at 100 µM is at least 30%.

`Cc1ccccc1CN1CCN(C(=O)CCc2c(C)nn(-c3ccc4nnc(C)n4n3)c2C)CC1` [Example 160]: the IC50 was at most 3 µM.

For `Cc1nn(-c2ccc3nnc(C)n3n2)c(C)c1CCC(=O)N1CCN(Cc2ccc(C(F)(F)F)c(F)c2)CC1` [Example 136], the IC50 is at most 10 µM.

Turning to `Cc1nn(-c2ccc3nnc(C(F)(F)F)n3n2)c(C)c1CCC(=O)N1CCN(Cc2cc(F)cc(C#N)c2)CC1` [Example 181], the IC50 was at most 30 µM.

Turning to `CC(=O)c1cccc(CN2CCN(C(=O)CCc3c(C)nn(-c4ccc5nnc(C)n5n4)c3C)CC2)c1` [Example 125], the IC50 is at most 3 µM.

For `Cc1nn(-c2ccc3nnc(C)n3n2)c(C)c1CCC(=O)N1CCN(Cc2ccc(F)c(F)c2)CC1` [Example 140], the IC50 was at most 30 µM.

Regarding `Cc1nn(-c2ccc3nnc(C)n3n2)c(C)c1CCC(=O)N1CCN(Cc2cccc(-c3nnn[nH]3)c2C)CC1` [Example 179], the IC50 was at most 3 µM.

Consider `Cc1nn(-c2ccc3nnc(C)n3n2)c(C)c1CCC(=O)N1CCNC(Cc2ccccc2)C1` (stereo not shown) [Example 102], for which the IC50 was at most 30 µM.

Consider `Cc1nn(-c2ccc3nnc(C)n3n2)c(C)c1CCC(=O)N1CCN(Cc2ccccc2Cl)CC1` [Example 144], for which the IC50 was at most 10 µM.

In the case of `Cc1nn(-c2ccc3nnc(C)n3n2)c(C)c1CCC(=O)N1CCN(Cc2ccc(S(N)(=O)=O)cc2)CC1` [Example 130], the IC50 is at most 3 µM.

As for `Cc1nn(-c2ccc3nnc(C)n3n2)c(C)c1CCC(=O)N1CCN(Cc2ccc(C#N)cc2Cl)CC1` [Example 188], the IC50 is at most 30 µM.

As for `Cc1cc(CN2CCN(C(=O)CCc3c(C)nn(-c4ccc5nnc(C)n5n4)c3C)CC2)cc([N+](=O)[O-])c1` [Example 129], the IC50 was at most 3 µM.

Turning to `Cc1nn(-c2ccc3nnc(C)n3n2)c(C)c1CCC(=O)N1CCN(Cc2cccc(F)c2)CC1` [Example 158], the IC50 was at most 10 µM.

Take `Cc1nn(-c2ccc3nnc(C)n3n2)c(C)c1CCC(=O)N1CCN(Cc2cccc(Br)c2)CC1` [Example 163]: the IC50 was at most 3 µM.

For `CC(=O)c1ccc(CN2CCN(C(=O)CCc3c(C)nn(-c4ccc5nnc(C)n5n4)c3C)CC2)cc1` [Example 108], the IC50 was at most 10 µM.

On to `Cc1nn(-c2ccc3nnc(C)n3n2)c(C)c1CCC(=O)N1CCC(C)(Cc2ccccc2)C1` (stereo not shown) [Example 119], for which the IC50 was at most 3 µM.

In the case of `Cc1nn(-c2ccc3nnc(C)n3c2)c(C)c1CCC(=O)N1CCCC(Cc2ccccc2)C1` (stereo not shown) [Example 106], the inhibition at 100 µM is at least 30%.

With `Cc1nn(-c2ccc3nnc(C)n3n2)c(C)c1CCC(=O)N1CCN(Cc2ccc(-c3nnn[nH]3)cc2)CC1` [Example 164], the IC50 was at most 3 µM.

Take `Cc1nn(-c2ccc3nnc(C(F)(F)F)n3n2)c(C)c1CCC(=O)N1CCN(Cc2ccc(-c3nnn[nH]3)cc2F)CC1` [Example 170]: the IC50 is at most 3 µM.

As for `Cc1nn(-c2ccc3nnc(C)n3n2)c(C)c1CCC(=O)N1CCN(Cc2cccc([N+](=O)[O-])c2)CC1` [Example 149], the IC50 was at most 10 µM.

For the compound `CNC(=O)c1cccc(CN2CCN(C(=O)CCc3c(C)nn(-c4ccc5nnc(C)n5n4)c3C)CC2)c1` [Example 101], the IC50 was at most 30 µM.

On to `Cc1nn(-c2ccc3nnc(C(F)(F)F)n3n2)c(C)c1CCC(=O)N1CCN(Cc2cccc(-c3nnn[nH]3)c2Cl)CC1` [Example 176], for which the IC50 is at most 3 µM.

With `Cc1nn(-c2ccc3nnc(C)n3n2)c(C)c1CCC(=O)N1CCN(Cc2ccc3cc[nH]c3c2)CC1` [Example 165], the IC50 is at most 10 µM.

On to `Cc1nn(-c2ccc3nnc(C)n3n2)c(C)c1CCC(=O)N1CCN(Cc2cccc(C#N)c2)CC1` [Example 126], for which the IC50 is at most 3 µM.

On to `Cc1nn(-c2ccc3nnc(C)n3n2)c(C)c1CCC(=O)N1CCN(Cc2ccc(NS(C)(=O)=O)cc2)CC1` [Example 117], for which the IC50 is at most 10 µM.

Turning to `COC(=O)c1ccc(CN2CCN(C(=O)CCc3c(C)nn(-c4ccc5nnc(C)n5n4)c3C)CC2)cc1` [Example 96], the half-inhibitory concentration (IC50) was at most 3 µM.

With `Cc1nn(-c2ccc3nnc(C)n3c2)c(C)c1CCC(=O)N1CCC(Cc2ccccc2)C1` (stereo not shown) [Example 107], the inhibition at 100 µM was at least 30%.

Turning to `Cc1nn(-c2ccc3nnc(C)n3n2)c(C)c1CCC(=O)N1CCN(Cc2cccc(C(=O)O)c2)CC1` [Example 99], the IC50 is at most 3 µM.

`Cc1nn(-c2ccc3nnc(C)n3n2)c(C)c1CCC(=O)N1CCN(Cc2ccc(-c3nnn[nH]3)cc2Cl)CC1` [Example 173]: the IC50 was at most 3 µM.

For the compound `Cc1nn(-c2ccc3nnc(C)n3n2)c(C)c1CCC(=O)N1CCN(Cc2cccc(C#N)c2Cl)CC1` [Example 184], the half-inhibitory concentration (IC50) was at most 10 µM.

Consider `Cc1nn(-c2ccc3nnc(C)n3n2)c(C)c1CCC(=O)N1CCN(Cc2ccc(C(F)(F)F)cc2)CC1` [Example 110], for which the IC50 is at most 30 µM.

`Cc1nn(-c2ccc3nnc(C)n3n2)c(C)c1CCC(=O)N1CCC(Oc2ccccc2)CC1` [Example 168]: the IC50 was at most 10 µM.

Regarding `Cc1nn(-c2ccc3nnc(C)n3n2)c(C)c1CCC(=O)N1CCC(CCc2ccccc2)CC1` [Example 145], the IC50 was at most 10 µM.

Consider `Cc1nn(-c2ccc3nnc(C)n3n2)c(C)c1CCC(=O)N1CCN(Cc2cccc(C#N)c2C)CC1` [Example 185], for which the 50% inhibitory concentration (IC50) is at most 3 µM.

`Cc1nn(-c2ccc3nnc(C)n3n2)c(C)c1CCC(=O)N1CCN(Cc2ccc(F)c(C(F)(F)F)c2)CC1` [Example 162]: the IC50 was at most 10 µM.

In the case of `Cc1nn(-c2ccc3nnc(C)n3n2)c(C)c1CCC(=O)N1CCN(Cc2cccc3ccccc23)CC1` [Example 141], the IC50 is at most 30 µM.

For a further test, the target named is T2, TRAF6-Ubc13 binding in HEK293T cells (Homo sapiens, UniProt Q9Y4K3).
T2 construct: RING-Zincfinger1 (RZ1) domain (residues 50-159) of human TRAF6 wildtype; expressed in transfected cells; host or cells: HEK 293T
T2 sequence (Q9Y4K3 50-159): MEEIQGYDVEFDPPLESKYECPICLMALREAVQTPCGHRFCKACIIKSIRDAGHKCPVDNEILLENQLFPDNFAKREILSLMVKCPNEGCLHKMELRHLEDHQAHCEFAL
Briefly: Co-immunoprecipitation of HA-TRAF6 and Ubc13 in HEK 293T cells. Type of test: cell-based.
Details: not given
The method, then: To study the interaction of TRAF6 and Ubc13 in cells, 1×10^6 293T cells were seeded and after 18 hours cells were transfected with 1 μg pEF-HA empty or pEF-HA-TRAF6 RZ1 plasmid using the X-tremeGENE HP DNA transfection reagent (Roche). 6 hours upon transfection, cells were treated with compound or DMSO. After 42 hours further incubation, cells were harvested in Co-IP lysis buffer and HA-TRAF6 was immunoprecipitated with anti-HA affinity matrix (Roche). Binding of Ubc13 to TRAF6 was examined in Western Blot analysis.
On to `Cc1nn(-c2ccc3nnc(C)n3n2)c(C)c1CCC(=O)N1CCC(c2ccccc2)CC1` [HZM06-6, 3-(3,5-dimethyl-1-(3-methyl-[1,2,4]triazolo[4,3-b]pyridazin-6-yl)-1H-pyrazol-4-yl)-1-(4-phenylpiperidin-1-yl)propan-1-one], for which the “interaction of endogenous Ubc13 with HA-tagged TRAF6 (co-immunoprecipitation)” value (“interaction of endogenous Ubc13” below) is reported as “also active in cells”.

In the case of `COc1cccc(CC2CCN(C(=O)CCc3c(C)nn(-c4ccc5nnc(C)n5n4)c3C)CC2)c1` [HZM06-8, 1-(4-(3-methoxybenzyl)piperidin-1-yl)-3-(3,5-dimethyl-1-(3-methyl-[1,2,4]triazolo[4,3-b]pyridazin-6-yl)-1H-pyrazol-4-yl)propan-1-one], the “interaction of endogenous Ubc13” value is reported as “also active in cells; also recorded: most active analogs”.

The same test, now with this note: listed as HZM06-08.
Regarding `COc1cccc(CC2CCN(C(=O)CCc3c(C)nn(-c4ccc5nnc(C)n5n4)c3C)CC2)c1` [HZM06-8, 1-(4-(3-methoxybenzyl)piperidin-1-yl)-3-(3,5-dimethyl-1-(3-methyl-[1,2,4]triazolo[4,3-b]pyridazin-6-yl)-1H-pyrazol-4-yl)propan-1-one], the “interaction of endogenous Ubc13” value is given as “demonstrated inhibition of TRAF6-Ubc13 binding”.
